Consider 6 compounds from article PMC9223267, “Serine hydroxymethyltransferase as a potential target of antibacterial agents acting synergistically with one-carbon metabolism-related inhibitors” (Communications Biology, 2022).

One assay deals with E. coli. Kind of assay: Antibacterial activity evaluation (turbidity, OD600). It counts as cell-based, Escherichia coli (ATCC25922). To be noted: Escherichia coli, E. coli ATCC25922. The method, then: (§1) E. faecium and E. faecalis were diluted to turbidity equivalents that matched 1.0 McFarland (McF) standard in distilled water (S. aureus and E. coli were also diluted to 0.5 McF), and additionally diluted 1:200 in Mueller–Hinton (MH) broth. The designated concentrations of the tested compounds were prepared by ten-fold serial dilutions directly in 96-well microtiter plates (IWAKI, Shizuoka, Japan), as previously described. […] The other compounds were serially diluted from 20 μM downwards (final concentration, 10 μM). […] Positive control wells included bacteria without any compound, and the negative control wells only contained MH broth. […] The optical density at 600 nm (OD600) was measured using a GloMax microtiter plate reader (Promega, WI, USA), and the EC50 values of each test compound and standard error were calculated by Microsoft Excel function, AVERAGE and STDEV/SQRT.

Assay [1] relates to efmSHMT. It counts as binding, Enterococcus faecium. To be noted: DSF; final drug concentration 50 μM. The method, then: Protein samples were prepared as 20 μL aliquots containing 0.1 mg/mL protein (efmSHMT/ecSHMT), 1 μL of the ligand in DMSO (final drug concentration, 50 μM) and 2% or 4% SYPRO Orange (Invitrogen, MA, USA). […] Melting points were evaluated as the half-point of the maximum intensity of each curve.

The test system of a further assay is S. aureus. Description: Antibacterial activity evaluation (turbidity, OD600). As to conditions: Staphylococcus aureus, S. aureus ATCC29213. It counts as cell-based, Staphylococcus aureus (ATCC29213). The method, then:
as §1

The target of assay [2] is efmSHMT (Enterococcus faecium, UniProt I3U4H4, M1V). Kind of assay: biochemical. Type of assay: binding. As to conditions: 5 μM efmSHMT, 10 mM Gly and 100 μM Ser. The method, then: After adding Me-THF, the efmSHMT solution was incubated for 30 min at room temperature. The optical density at 500 and 600 nm (OD500 and OD600) were then measured using a nanodrop spectrophotometer[24],[25]. OD600 was used as the background. After detection, each concentration of inhibitor was added to the efmSHMT solution and incubated for 30 min at room temperature. OD500 and OD600 were measured. The relative OD500 intensity was calculated as relative OD500 = (OD500 – OD600)/(MAXOD500 – OD600), where MAXOD500 is the average OD500 value in the presence of 1000, 2000 and 4000 μM Me-THF without inhibitors. […] Here, IC50 is the concentration of inhibitor added to the efmSHMT solution and [Me-THF] is the EC50 in the presence of the inhibitor concentration. [EC50 without inhibitor] is the EC50 of Me-THF in the absence of the inhibitor.
Sequence of efmSHMT (Enterococcus faecium, UniProt I3U4H4, M1V) (I3U4H4 whole entry M1V): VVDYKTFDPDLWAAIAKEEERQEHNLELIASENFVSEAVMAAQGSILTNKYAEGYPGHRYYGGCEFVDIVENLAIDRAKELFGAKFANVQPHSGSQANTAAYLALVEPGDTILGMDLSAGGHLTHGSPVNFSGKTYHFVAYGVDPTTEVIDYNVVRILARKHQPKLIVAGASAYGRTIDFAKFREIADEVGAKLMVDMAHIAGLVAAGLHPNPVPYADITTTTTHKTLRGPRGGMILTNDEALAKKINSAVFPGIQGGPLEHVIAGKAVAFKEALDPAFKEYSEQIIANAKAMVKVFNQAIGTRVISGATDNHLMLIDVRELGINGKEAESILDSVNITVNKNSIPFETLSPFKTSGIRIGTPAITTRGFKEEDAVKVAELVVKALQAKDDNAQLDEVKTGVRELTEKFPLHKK

The test system of the next assay is E. faecalis. Description: Antibacterial activity evaluation (turbidity, OD600). Type of assay: cell-based, Enterococcus faecalis (JCM7783). As to conditions: Enterococcus faecalis, E. faecalis JCM7783. The method, then: as §1
Assay [3] concerns E. faecium. Kind of assay: Antibacterial assay with an excess concentration of biomolecules (Ser, Gly, inosine, dT, FA). As to conditions: Enterococcus faecium. Type of assay: cell-based, Enterococcus faecium (JCM5804). The procedure:
as §1
The ratio of the control EC50 (no competitors added) to the experimental EC50 (competitors added) was calculated for each test substance.

In assay [4] the test system is E. faecium. Kind of assay: Antibacterial activity evaluation (turbidity, OD600). Type of assay: cell-based, Enterococcus faecium (JCM5804). As to conditions: Enterococcus faecium. The procedure: as §1
Assay [5] deals with E. faecium. Description: Bacterial viability assay (Microbial Viability Assay Kit-WST, OD450). It counts as cell-based, Enterococcus faecium. The procedure: Living E. faecium were determined using the Microbial Viability Assay Kit-WST (DOJINDO, Tokyo, Japan). […] Positive control wells included bacteria seeded into MH broth without compounds, and the negative control wells contained MH broth only. […] Five microlitres of the colouring reagent were added to each well of the 96-well plate every 2 h after starting incubation with each compound.

[6] abbreviates: read-out: pEC50 ± S.E. (converted).
[7] abbreviates: JCM5804, E. faecium JCM5804, 1 mM Inosine, read-out: EC50.
The mark [8] stands for this setting: JCM5804, E. faecium JCM5804, 1 mM Inosine, read-out: pEC50 ± S.E. (converted).
Where [9] appears, read: JCM5804, E. faecium JCM5804, 1 mM deoxythymidine, read-out: EC50.
Setting [10] is: JCM5804, E. faecium JCM5804, 1 mM deoxythymidine, read-out: pEC50 ± S.E. (converted).
[11] abbreviates: JCM5804, E. faecium JCM5804, 10 mM Glycine, read-out: EC50.
Where [12] appears, read: JCM5804, E. faecium JCM5804, 10 mM Glycine, read-out: pEC50 ± S.E. (converted).
Setting [13] is: JCM5804, E. faecium JCM5804, 100 mM Serine, read-out: EC50.
Setting [14] is: JCM5804, E. faecium JCM5804, 100 mM Serine, read-out: pEC50 ± S.E. (converted).
The mark [15] stands for this setting: JCM5804, E. faecium JCM5804, 0.1 M folate, read-out: EC50.
[16] abbreviates: JCM5804, E. faecium JCM5804, 0.1 M folate, read-out: pEC50 ± S.E. (converted).
Where [17] appears, read: E. faecium JCM5804, read-out: EC50.
Where [18] appears, read: E. faecium JCM5804, read-out: pEC50 ± S.E. (converted).

pEC50, pKi: −log10 of the molar value. Read-outs that look alike come from different tables or passages of the source.

By pEC50 is commonly meant the negative decadic logarithm of the EC50, by convention in mol/L. By pKi is commonly meant the negative decadic logarithm of the Ki, by convention in mol/L. As to `Nc1nc2[nH]cc(CCc3ccc(C(=O)N[C@@H](CCC(=O)O)C(=O)O)cc3)c2c(=O)[nH]1` [PMX, pemetrexed], the pEC50 in the assay with E. coli (read-out: EC50) was under 4.00; in the assay with S. aureus (read-out: EC50) it was under 4.00; in the assay on E. faecalis (read-out: EC50), under 4.00; in the assay on E. faecium [3] (setting [7]) it was 10.13; in the assay with E. faecium [3] (setting [9]) it was under 4.00; in the assay on E. faecium [3] (setting [11]) it was 10.21. In addition, the negative logarithm of the EC50 (pEC50) was 9.60 in the assay on E. faecium [3] (setting [13]); 5.74 with E. faecium [3] (setting [15]); 10.28 in the assay with E. faecium [4] (JCM5804, E. faecium JCM5804, read-out: EC50). In addition, the EC50 in the assay on E. coli (setting [6]) was over 100000 nM; with S. aureus (setting [6]), over 100000 nM; in the assay on E. faecalis (setting [6]), over 100000 nM; with E. faecium [3] (setting [8]), 0.0794 nM; in the assay with E. faecium [3] (setting [10]), over 100000 nM; in the assay on E. faecium [3] (setting [12]), 0.0631 nM. The EC50 is 0.251 nM in the assay on E. faecium [3] (setting [14]); 2000 nM in the assay with E. faecium [3] (setting [16]); 0.0501 nM in the assay with E. faecium [4] (JCM5804, E. faecium JCM5804, read-out: pEC50 ± S.E. (converted)). Also, the “ΔTm (thermal stability of efmSHMT)” value with efmSHMT [1] is 0.9 °C. Besides, the negative-log Ki (pKi) on efmSHMT [2] (Ki, Cheng-Prusoff) was 3.93; at efmSHMT [2] (pKi ± pSE), 3.90.
Take `O=c1[nH]c(=O)n([C@@H]2O[C@H](CO)[C@@H](O)[C@H]2O)cc1F` [5-FUrd, 5-fluorouridine]: the negative logarithm of the EC50 (pEC50) was 5.00 in the assay with E. coli (read-out: EC50); 7.52 with S. aureus (read-out: EC50); 6.42 in the assay on E. faecalis (read-out: EC50); 6.14 in the assay on E. faecium [3] (setting [7]); 4.68 with E. faecium [3] (setting [9]); 7.19 in the assay with E. faecium [3] (setting [11]). Further, the results for the pEC50 in the assay with E. faecium [3] (setting [13]), in the assay on E. faecium [3] (setting [15]) and in the assay on E. faecium [4] (setting [17]) were 7.01, 6.57 and 7.14, respectively. Moreover, the EC50 with E. coli (setting [6]) was 10000 nM; in the assay with S. aureus (setting [6]), 31.6 nM; with E. faecalis (setting [6]), 398 nM; in the assay with E. faecium [3] (setting [8]) it was 794 nM; with E. faecium [3] (setting [10]), 20000 nM; in the assay on E. faecium [3] (setting [12]) it was 79.4 nM. The EC50 with E. faecium [3] (setting [14]) is 100 nM; in the assay with E. faecium [3] (setting [16]) it was 251 nM; with E. faecium [4] (setting [18]), 79.4 nM.
Turning to `CN[C@H](CC(C)C)C(=O)N[C@H]1C(=O)N[C@@H](CC(N)=O)C(=O)N[C@H]2C(=O)N[C@H]3C(=O)N[C@H](C(=O)N[C@H](C(=O)O)c4cc(O)cc(O)c4-c4cc3ccc4O)[C@H](O)c3ccc(c(Cl)c3)Oc3cc2cc(c3O[C@@H]2O[C@H](CO)[C@@H](O)[C@H](O)[C@H]2O[C@H]2C[C@](C)(N)[C@H](O)[C@H](C)O2)Oc2ccc(cc2Cl)[C@H]1O` [VCM, vancomycin], the EC50 is over 100 µg/mL with E. coli (VCM in μg/mL, read-out: EC50); 0.36 µg/mL in the assay with S. aureus (VCM in μg/mL, read-out: EC50); 3.2 µg/mL with E. faecalis (VCM in μg/mL, read-out: EC50); 0.29 µg/mL in the assay on E. faecium [3]; 0.34 µg/mL in the assay with E. faecium [3] (VCM in μg/mL, 1 mM Inosine, read-out: EC50); 0.42 µg/mL in the assay with E. faecium [3] (VCM in μg/mL, 1 mM deoxythymidine, read-out: EC50). Moreover, the EC50 turned out to be 0.3 µg/mL in the assay with E. faecium [3] (VCM in μg/mL, 100 mM Serine, read-out: EC50); 0.31 µg/mL with E. faecium [3] (VCM in μg/mL, 0.1 M folate, read-out: EC50); 0.31 µg/mL in the assay with E. faecium [4] (VCM in μg/mL, E. faecium JCM5804, read-out: EC50).
In the case of `Cc1nc2ccc(CN(C)c3ccc(C(=O)N[C@@H](CCC(=O)O)C(=O)O)s3)cc2c(=O)[nH]1` [RTX, raltitrexed], the pEC50 was under 4.00 in the assay with E. coli (read-out: EC50); under 4.00 in the assay with S. aureus (read-out: EC50); under 4.00 with E. faecalis (read-out: EC50); 8.09 in the assay with E. faecium [3] (setting [7]); under 4.00 in the assay on E. faecium [3] (setting [9]); 8.00 in the assay with E. faecium [3] (setting [11]). Also, the values for the negative-log EC50 (pEC50) in the assay with E. faecium [3] (setting [13]), in the assay on E. faecium [3] (setting [15]) and in the assay with E. faecium [4] (setting [17]) were 7.85, under 4.00 and 7.89, respectively. The EC50 was over 100000 nM with E. coli (setting [6]); over 100000 nM in the assay on S. aureus (setting [6]); over 100000 nM in the assay on E. faecalis (setting [6]); 7.94 nM in the assay with E. faecium [3] (setting [8]); over 100000 nM with E. faecium [3] (setting [10]); 10 nM in the assay with E. faecium [3] (setting [12]). For the same compound, the values for the EC50 in the assay on E. faecium [3] (setting [14]), in the assay on E. faecium [3] (setting [16]) and in the assay with E. faecium [4] (setting [18]) were 12.6 nM, over 100000 nM and 12.6 nM, respectively.
As for `NCC(=O)O` [glycine], the Relative bacterial viability is recorded as ~ 0.75 with E. faecium [5] (50 mM glycine (Supplementary Fig. S2)) and about 0.40 with E. faecium [5] (100 mM glycine (Supplementary Fig. S2)).
As for `O=c1[nH]c(=O)n([C@H]2C[C@H](O)[C@@H](CO)O2)cc1F` [5-FdU, 5-fluoro-2′-deoxyuridine], the pEC50 with E. coli (read-out: EC50) was 5.00; with S. aureus (read-out: EC50), 8.05; in the assay on E. faecalis (read-out: EC50), 6.51; in the assay with E. faecium [3] (setting [7]) it was 7.62; in the assay with E. faecium [3] (setting [9]) it was under 4.00; with E. faecium [3] (setting [11]), 8.19. The pEC50 in the assay on E. faecium [3] (setting [13]) was 7.49; in the assay with E. faecium [3] (setting [15]) it was 6.72; in the assay with E. faecium [4] (setting [17]) it was 7.54. Moreover, the EC50 was 10000 nM in the assay on E. coli (setting [6]); 7.94 nM in the assay with S. aureus (setting [6]); 316 nM in the assay with E. faecalis (setting [6]); 25.1 nM in the assay with E. faecium [3] (setting [8]); over 100000 nM in the assay with E. faecium [3] (setting [10]); 6.31 nM in the assay on E. faecium [3] (setting [12]). The EC50 in the assay on E. faecium [3] (setting [14]) is 31.6 nM; in the assay with E. faecium [3] (setting [16]) it was 200 nM; in the assay on E. faecium [4] (setting [18]) it was 31.6 nM.
